The supplement of paper PMC11061612

Columns and labels:
T47D (Breast Carcinoma) = assay: Bliss excess, mean over the matrix (fraction); higher = more synergy
Method in brief: (§1)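 Cell lines in DMEM/F12 or RPMI with 10% FBS were plated in 1536-well plates, held 24 hours at 37°C, 5% CO2, then given two-drug dose matrices for 72 hours (DMSO typically 0.2%). Viability was read by CellTiter-Glo 2.0 luminescence and scaled as inhibition from 0 (vehicle wells) to 1 (blank wells). Combination Emax is the second-highest inhibition in the matrix; Bliss excess is observed combination effect minus expected EA + EB − EA·EB, EA and EB being single-agent effects.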

[1] = system: SAT (Head and Neck Carcinoma); assay: as above
Method in brief: as §1

[2] = system: BxPC-3 (Pancreatic Carcinoma); assay: as above
Method in brief: as §1

[3] = system: HPAF-II (Pancreatic Carcinoma); assay: as above
Method in brief: as §1

[4] = system: MM1S (Plasma Cell Myeloma); assay: as above
Method in brief: as §1

[5] = system: HT-1080 (Other Solid Carcinomas); assay: as above
Method in brief: as §1

[6] = system: T84 (Colorectal Carcinoma); assay: as above
Method in brief: as §1

[7] = system: TUR (Acute Myeloid Leukemia); assay: as above
Method in brief: as §1

[8] = system: PA-TU-8988T (Pancreatic Carcinoma); assay: as above
Method in brief: as §1

[9] = system: SNU-407 (Colorectal Carcinoma); assay: as above
Method in brief: as §1

IST-MEL1 (Melanoma) = assay: as above
Method in brief: as §1

KALS-1 (Glioblastoma) = assay: as above
Method in brief: as §1

[10] = system: PL4 (Pancreatic Carcinoma); assay: as above
Method in brief: as §1

UACC-257 (Melanoma) = assay: as above
Method in brief: as §1

NCI-H226 (Mesothelioma) = assay: as above
Method in brief: as §1

[11] = system: HPAF-II (Pancreatic Carcinoma); assay: combination Emax (second highest fraction inhibited in the dose matrix, 72 h); higher = more inhibition; extreme values may be limits of the assay
Method in brief: as §1
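For Bliss excess, mean over the matrix in this document: after 72 h of two-drug dosing.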

| SMILES | Bliss excess (T47D (Breast Carcinoma)) | Bliss excess [1] | Bliss excess [2] | Bliss excess [3] | Bliss excess [4] | Bliss excess [5] | Bliss excess [6] | Bliss excess [7] | Bliss excess [8] | Bliss excess [9] | Bliss excess (IST-MEL1 (Melanoma)) | Bliss excess (KALS-1 (Glioblastoma)) | Bliss excess [10] | Bliss excess (UACC-257 (Melanoma)) | Bliss excess (NCI-H226 (Mesothelioma)) | combination Emax [11] |
| --- | --- | --- | --- | --- | --- | --- | --- | --- | --- | --- | --- | --- | --- | --- | --- | --- |
| CS(=O)(=O)CCNCc1ccc(-c2ccc3ncnc(Nc4ccc(OCc5cccc(F)c5)c(Cl)c4)c3c2)o1 [Lapatinib] + C[C@@H](Oc1cc(-c2cnn(C3CCNCC3)c2)cnc1N)c1c(Cl)ccc(F)c1Cl [Crizotinib] (first compound max 10 µM, 7x7, partner max 10 µM) | -0.0223 | -0.0358 | -0.0259 | 0.0211 | 0.0395 | -0.012 | -0.006 | -0.0168 | -0.0244 | -0.0774 | -0.0095 | -0.0378 | 0.0434 | -0.0442 | -0.0513 | 0.614 |
| CC(=O)c1c(C)c2cnc(Nc3ccc(N4CCNCC4)cn3)nc2n(C2CCCC2)c1=O [Palbociclib] + Cn1cnc2c(F)c(Nc3ccc(Br)cc3Cl)c(C(=O)NOCCO)cc21 [Selumetinib] (first compound max 10 µM, 7x7, partner max 10 µM) | -0.0328 | 0.0504 | -0.0238 | -0.0337 | -0.0061 | -0.0519 | -0.0476 | -0.0069 | 0.0449 | 0.0615 | 0.052 | -0.0353 | -0.0553 | -0.0087 | -0.0052 | 0.629 |
| NC1(C(=O)N[C@@H](CCO)c2ccc(Cl)cc2)CCN(c2ncnc3[nH]ccc23)CC1 [Capivasertib] + Cn1cnc2c(F)c(Nc3ccc(Br)cc3Cl)c(C(=O)NOCCO)cc21 [Selumetinib] (first compound max 10 µM, 7x7, partner max 10 µM) | -0.0108 | 0.0768 | -0.0091 | 0.0623 | 0.0712 | 0.0159 | -0.0598 | 0.0879 | 0.128 | 0.026 | 0.0465 | 0.0079 | -0.0314 | -0.0402 | -0.063 | 0.75 |
| COc1nnc2ccc(N3CCC(c4ccc(OCCN5CCN(C)C(=O)[C@H]5C)cc4)CC3)nn12 [AZD5153] + C[C@@H]1COCCN1C2=NC(=NC(=C2)C3(CC3)[S@](=N)(=O)C)C4=C5C=CNC5=NC=C4 [AZD6738] (first compound max 1 µM, 7x7, partner max 10 µM) | 0.0796 | 0.031 | -0.0013 | 0.0002 | 0.0719 | -0.0255 | -0.131 | -0.0046 | 0.0531 | 0.003 | 0.0206 | -0.0314 | -0.0425 | 0.0581 | 0.0038 | 0.512 |
| COc1cc2ncnc(Nc3ccc(F)c(Cl)c3)c2cc1OCCCN1CCOCC1 [Gefitinib] + CC(C)n1c(=O)n(C)c2cnc3cc(F)c(-c4ccc(OCCCN5CCCCC5)nc4)cc3c21 [AZD1390] (first compound max 10 µM, 7x7, partner max 0.3 µM) | -0.0438 | -0.0522 | -0.0692 | -0.066 | -0.0356 | -0.0548 | -0.035 | -0.0185 | -0.0342 | -0.0783 | -0.0684 | -0.0471 | -0.055 | -0.055 | -0.0661 | 0.29 |
| NC1(C(=O)N[C@@H](CCO)c2ccc(Cl)cc2)CCN(c2ncnc3[nH]ccc23)CC1 [Capivasertib] + CCN(CCO)CCCOc1ccc2c(Nc3cc(CC(=O)Nc4cccc(F)c4)[nH]n3)ncnc2c1 [AZD2811] (first compound max 10 µM, 7x7, partner max 1 µM) | 0.071 | -0.0307 | -0.0545 | 0.0052 | 0.0257 | -0.0498 | -0.104 | 0.0286 | 0.103 | -0.0833 | -0.0347 | 0.0318 | 0.0317 | 0.0028 | -0.0459 | 0.218 |
| Cn1cnc2c(F)c(Nc3ccc(Br)cc3Cl)c(C(=O)NOCCO)cc21 [Selumetinib] + C[C@@H]1COCCN1C2=NC(=NC(=C2)C3(CC3)[S@](=N)(=O)C)C4=C5C=CNC5=NC=C4 [AZD6738] (first compound max 10 µM, 7x7, partner max 10 µM) | -0.0576 | 0.0782 | -0.0197 | 0.0119 | 0.0511 | 0.0553 | 0.1 | 0.0151 | 0.0731 | 0.1 | -0.0217 | -0.0479 | 0.0866 | 0.047 | -0.0364 | 0.768 |
| Cn1cnc2c(F)c(Nc3ccc(Br)cc3Cl)c(C(=O)NOCCO)cc21 [Selumetinib] + CC(C)n1c(=O)n(C)c2cnc3cc(F)c(-c4ccc(OCCCN5CCCCC5)nc4)cc3c21 [AZD1390] (first compound max 10 µM, 7x7, partner max 0.3 µM) | -0.0468 | 0.0022 | -0.0518 | 0.0088 | 0.0258 | -0.0697 | -0.0265 | -0.0122 | -0.0269 | -0.0235 | -0.013 | -0.0115 | 0.0102 | -0.0099 | -0.0344 | 0.64 |
| CC(=O)c1c(C)c2cnc(Nc3ccc(N4CCNCC4)cn3)nc2n(C2CCCC2)c1=O [Palbociclib] + CC1(C)CCC(CN2CCN(c3ccc(C(=O)NS(=O)(=O)c4ccc(NCC5CCOCC5)c([N+](=O)[O-])c4)c(Oc4cnc5[nH]ccc5c4)c3)CC2)=C(c2ccc(Cl)cc2)C1 [Venetoclax] (first compound max 10 µM, 7x7, partner max 1 µM) | 0.0466 | -0.0489 | -0.0429 | -0.034 | 0.0353 | -0.0573 | -0.0556 | 0.0153 | -0.0333 | -0.01 | 0.0117 | -0.0396 | -0.0521 | -0.0479 | -0.0174 | 0.0506 |
| Cn1cnc2c(F)c(Nc3ccc(Br)cc3Cl)c(C(=O)NOCCO)cc21 [Selumetinib] + CCN(CCO)CCCOc1ccc2c(Nc3cc(CC(=O)Nc4cccc(F)c4)[nH]n3)ncnc2c1 [AZD2811] (first compound max 10 µM, 7x7, partner max 1 µM) | -0.0735 | -0.0151 | -0.057 | 0.0129 | 0.0812 | -0.0315 | -0.0479 | 0.0277 | -0.0527 | -0.0522 | -0.0203 | -0.0093 | 0.0097 | 0.0212 | -0.0364 | 0.682 |
| NC1(C(=O)N[C@@H](CCO)c2ccc(Cl)cc2)CCN(c2ncnc3[nH]ccc23)CC1 [Capivasertib] + C[C@@H]1COCCN1C2=NC(=NC(=C2)C3(CC3)[S@](=N)(=O)C)C4=C5C=CNC5=NC=C4 [AZD6738] (first compound max 10 µM, 7x7, partner max 10 µM) | -0.0095 | -0.0345 | -0.0076 | -0.0105 | 0.0201 | -0.0473 | -0.111 | -0.0398 | -0.0372 | -0.101 | -0.0446 | -0.074 | -0.0328 | 0.0164 | -0.0775 | 0.5 |
| NC1(C(=O)N[C@@H](CCO)c2ccc(Cl)cc2)CCN(c2ncnc3[nH]ccc23)CC1 [Capivasertib] + CC(=O)c1c(C)c2cnc(Nc3ccc(N4CCNCC4)cn3)nc2n(C2CCCC2)c1=O [Palbociclib] (first compound max 10 µM, 7x7, partner max 10 µM) | -0.0115 | -0.0203 | -0.0396 | 0.0187 | -0.0128 | -0.0779 | -0.0175 | 0.0128 | -0.0168 | -0.0267 | -0.0106 | -0.0379 | -0.0323 | -0.0046 | -0.0792 | 0.197 |
